Earlier results, collected in patent US20210137911A1, “NOVEL CHRONOTHERAPY BASED ON CIRCADIAN RHYTHMS” (THE TRUSTEES OF THE UNIVERSITY OF PENNSYLVANIA, priority 2014, published 2021).
Read-outs that look alike come from different tables or passages of the source. Positions of bridges follow the written chain, without caps; N, C: chain ends. Non-standard residues stand in square brackets, D forms with d. Residues, ends and D or L forms follow the SMILES beside them. hArg = N=C(N)NCCCC[C@H](N)C(=O)O; Mpa = O=C(O)CCS

Conditions: cited from earlier work; for minimum reported half-life / half-life: see Table 1
[1] = half-life of top selling therapeutic compounds (Table 1)
[2] = half-life of therapeutic compound as listed in Table 1

## CN1C(=O)CN=C(c2ccccc2)c2cc(Cl)ccc21 [Diazepam]
In vivo
  ½ Life: 1 h

## O=C(O)Cc1ccccc1Nc1c(Cl)cccc1Cl [Diclofenac]
In vivo
  ½ Life: 2 h

## CCCCC[C@H](O)/C=C/[C@H]1[C@H](O)CC(=O)[C@@H]1C/C=C\CCCC(=O)O [Dinoprostone]
[1]
  ½ Life: 0.0833 h

## OC(CCCN1CCCCC1)(c1ccccc1)c1ccccc1 [Diphenidol]
[1]
  ½ Life: 4 h

## OCCN(CCO)c1nc(N2CCCCC2)c2nc(N(CCO)CCO)nc(N3CCCCC3)c2n1 [Dipyridamole]
[1]
  ½ Life: 0.66 h

## CC(CCc1ccc(O)cc1)NCCc1ccc(O)c(O)c1 (centres unmarked) [Dobutamine]
[1]
  ½ Life: 0.033 h

## NCCc1ccc(O)c(O)c1 [Dopamine]
[1]
  ½ Life: 0.033 h

## CCCCCc1cc(O)c2c(c1)OC(C)(C)[C@@H]1CCC(C)=C[C@@H]21 [Dronabinol]
In vivo
  ½ Life: 4 h

## O=C(CCCN1CC=C(n2c(=O)[nH]c3ccccc32)CC1)c1ccc(F)cc1 [Droperidol]
[1]
  ½ Life: 1.4 h

## N[C@H](C(=O)O)[C@H](O)c1ccc(O)c(O)c1 [Droxidopa]
[1]
  ½ Life: 2 h

## CC(=O)[C@H]1CC[C@H]2[C@@H]3C=CC4=CC(=O)CC[C@@]4(C)[C@@H]3CC[C@]12C [Dydrogesterone]
[1]
  ½ Life: 5 h

## Cn1c(=O)c2c(ncn2CC(O)CO)n(C)c1=O (centres unmarked) [Dyphylline]
[1]
  ½ Life: 2 h

## CN1CCC[C@@H]1Cc1c[nH]c2ccc(CCS(=O)(=O)c3ccccc3)cc12 [Eletriptan]
[1]
  ½ Life: 4 h

## CCOC(=O)[C@H](CCc1ccccc1)N[C@@H](C)C(=O)N1CCC[C@H]1C(=O)O [Enalapril, reference compound]
[1]
  ½ Life: 2 h
  minimum reported half-life: 2 h

## COc1ccc(C(=O)Nc2ccccc2CCC2CCCCN2C)cc1 (centres unmarked) [Encainide]
[1]
  ½ Life: 1 h

## CCn1cc(C(=O)O)c(=O)c2cc(F)c(N3CCNCC3)nc21 [Enoxacin]
[1]
  ½ Life: 3 h

## CSc1ccc(C(=O)c2[nH]c(=O)[nH]c2C)cc1 [Enoximone]
[1]
  ½ Life: 4 h

## CNC[C@H](O)c1ccc(O)c(O)c1 [Epinephrine]
[1]
  ½ Life: 0.033 h

## COc1cccc2c1C(=O)c1c(O)c3c(c(O)c1C2=O)C[C@@](O)(C(=O)CO)C[C@@H]3O[C@H]1C[C@H](N)[C@@H](O)[C@H](C)O1 [Epirubicin]
[1]
  ½ Life: 3 h

## COC(=O)[C@@H]1CC2=CC(=O)CC[C@]2(C)[C@@]23O[C@@H]2C[C@@]2(C)[C@@H](CC[C@@]24CCC(=O)O4)[C@H]13 [Eplerenone]
[1]
  ½ Life: 4 h

## CCCCc1ncc(/C=C(\Cc2cccs2)C(=O)O)n1Cc1ccc(C(=O)O)cc1 [Eprosartan]
[1]
  ½ Life: 5 h

## N=C(N)NCCCC[C@@H]1NC(=O)CCSSC[C@@H](C(N)=O)NC(=O)[C@@H]2CCCN2C(=O)[C@H](Cc2c[nH]c3ccccc23)NC(=O)[C@H](CC(=O)O)NC(=O)CNC1=O [Eptifibatide] ([Mpa][hArg]GDWPC-NH2; disulfide 1-7)
In vivo
  ½ Life: 2.5 h

## C[C@@H](CO)NC(=O)[C@@H]1C=C2c3cccc4[nH]cc(c34)C[C@H]2N(C)C1 [Ergonovine]
[1]
  ½ Life: 1 h

## CN1C[C@H](C(=O)N[C@]2(C)O[C@@]3(O)[C@@H]4CCCN4C(=O)[C@H](Cc4ccccc4)N3C2=O)C=C2c3cccc4[nH]cc(c34)C[C@H]21 [Ergotamine]
In vivo
  ½ Life: 2 h

## COC(=O)CCc1ccc(OCC(O)CNC(C)C)cc1 (centres unmarked) [Esmolol]
[1]
  ½ Life: 2 h

## COc1ccc2nc([S@@+]([O-])Cc3ncc(C)c(OC)c3C)[nH]c2c1 [Esomeprazole]
[1]
  ½ Life: 1 h

## C#CC1(OC(N)=O)CCCCC1 [Ethinamate]
In vivo
  ½ Life: 2.5 h

## CCc1cc(C(N)=S)ccn1 [Ethionamide]
[1]
  ½ Life: 2 h

## CCN1C(=O)NC(c2ccccc2)C1=O (centres unmarked) [Ethotoin]
[1]
  ½ Life: 3 h

## CCOc1ccc2nc(S(N)(=O)=O)sc2c1 [Ethoxzolamide]
[1]
  ½ Life: 2.5 h

## CC(O)(P(=O)(O)O)P(=O)(O)O [Etidronic acid]
[1]
  ½ Life: 1 h

## COc1cc([C@@H]2c3cc4c(cc3[C@@H](O[C@@H]3O[C@@H]5CO[C@@H](C)O[C@H]5[C@H](O)[C@H]3O)[C@H]3COC(=O)[C@H]23)OCO4)cc(OC)c1O [Etoposide]
[1]
  ½ Life: 4 h

## CC(C(=O)O)c1cccc(Oc2ccccc2)c1 (centres unmarked) [Fenoprofen]
[1]
  ½ Life: 3 h

## CC(C)(C)NC(=O)[C@H]1CC[C@H]2[C@@H]3CC[C@H]4NC(=O)C=C[C@]4(C)[C@H]3CC[C@]12C [Finasteride]
[1]
  ½ Life: 4.5 h

## Nc1nc(=O)[nH]cc1F [Flucytosine]
[1]
  ½ Life: 2.4 h

## C[C@]12CCC(=O)C=C1CC[C@H]1[C@@H]3CC[C@](O)(C(=O)CO)[C@@]3(C)C[C@H](O)[C@@]12F [Fludrocortisone]
[1]
  ½ Life: 3.5 h

## CCOC(=O)c1ncn2c1CN(C)C(=O)c1cc(F)ccc1-2 [Flumazenil]
[1]
  ½ Life: 4 h

## CC1(C)O[C@@H]2C[C@H]3[C@@H]4C[C@H](F)C5=CC(=O)C=C[C@]5(C)[C@H]4[C@@H](O)C[C@]3(C)[C@]2(C(=O)CO)O1 [Flunisolide]
[1]
  ½ Life: 1.8 h

## CC1(C)O[C@@H]2C[C@H]3[C@@H]4C[C@H](F)C5=CC(=O)C=C[C@]5(C)[C@@]4(F)[C@@H](O)C[C@]3(C)[C@]2(C(=O)CO)O1 [Fluocinolone Acetonide]
[1]
  ½ Life: 1.3 h

## O=c1[nH]cc(F)c(=O)[nH]1 [Fluorouracil]
[1]
  ½ Life: 0.166 h

## CCN(CC)CCN1C(=O)CN=C(c2ccccc2F)c2cc(Cl)ccc21 [Flurazepam]
[1]
  ½ Life: 2.3 h

## CC(C(=O)O)c1ccc(-c2ccccc2)c(F)c1 (centres unmarked) [Flurbiprofen]
[1]
  ½ Life: 4.7 h

## CC(C)n1c(/C=C/C(O)CC(O)CC(=O)O)c(-c2ccc(F)cc2)c2ccccc21 (centres unmarked) [Fluvastatin, reference compound]
[1]
  ½ Life: 3 h

## O=C1NC(c2ccccc2)(c2ccccc2)C(=O)N1COP(=O)(O)O [Fosphenytoin]
[1]
  ½ Life: 0.25 h

## NCC1(CC(=O)O)CCCCC1 [Gabapentin]
In vivo
  ½ Life: 5 h

## O=[N+]([O-])[O-].O=[N+]([O-])[O-].O=[N+]([O-])[O-].[Ga+3] [Gallium nitrate]
[2]
  ½ Life: 1 h

## O=C(O)CCCO [Gamma Hydroxybutyric Acid]
[2]
  ½ Life: 0.5 h

## CC(=O)[C@H]1CC[C@H]2[C@@H]3CC[C@H]4C[C@](C)(O)CC[C@]4(C)[C@H]3CC[C@]12C [Ganaxolone]
[2]
  ½ Life: 1.3 h

## Nc1ccn([C@@H]2O[C@H](CO)[C@@H](O)C2(F)F)c(=O)n1 [Gemcitabine]
[2]
  ½ Life: 0.7 h

## Cc1ccc(C)c(OCCCC(C)(C)C(=O)O)c1 [Gemfibrozil, reference compound]
[2]
  ½ Life: 1.5 h
  half-life: one and a half
  minimum reported half-life: one and a half

## CCC1=C(C)CN(C(=O)NCCc2ccc(S(=O)(=O)NC(=O)N[C@H]3CC[C@H](C)CC3)cc2)C1=O [Glimepiride]
[2]
  ½ Life: 5 h

## Cc1cnc(C(=O)NCCc2ccc(S(=O)(=O)NC(=O)NC3CCCCC3)cc2)cn1 [Glipizide]
[2]
  ½ Life: 2 h

## COc1ccc(Cl)cc1C(=O)NCCc1ccc(S(=O)(=O)NC(=O)NC2CCCCC2)cc1 [Glyburide]
[2]
  ½ Life: 1.4 h

## COCCOc1cnc(NS(=O)(=O)c2ccccc2)nc1 [Glycodiazine]
[2]
  ½ Life: 4 h

## C[N+]1(C)CCC(OC(=O)C(O)(c2ccccc2)C2CCCC2)C1 (centres unmarked) [Glycopyrrolate]
[2]
  ½ Life: 0.6 h

## CC(C)C[C@H](NC(=O)CNC(=O)[C@H](Cc1ccc(O)cc1)NC(=O)[C@H](CO)NC(=O)[C@H](Cc1c[nH]c2ccccc12)NC(=O)[C@H](Cc1cnc[nH]1)NC(=O)[C@@H]1CCC(=O)N1)C(=O)N[C@@H](CCCNC(=N)N)C(=O)N1CCC[C@H]1C(=O)NCC(N)=O [Gonadorelin]
In vivo
  ½ Life: 0.033 h

## CC(C)C[C@H](NC(=O)[C@@H](COC(C)(C)C)NC(=O)[C@H](Cc1ccc(O)cc1)NC(=O)[C@H](CO)NC(=O)[C@H](Cc1c[nH]c2ccccc12)NC(=O)[C@H](Cc1cnc[nH]1)NC(=O)[C@@H]1CCC(=O)N1)C(=O)N[C@@H](CCCNC(=N)N)C(=O)N1CCC[C@H]1C(=O)NNC(N)=O [Goserelin]
[2]
  ½ Life: 4 h

## CC(=O)Oc1ccc2c3c1O[C@H]1[C@@H](OC(C)=O)C=C[C@H]4[C@@H](C2)N(C)CC[C@@]341 [Heroin]
[2]
  ½ Life: 0.166 h

## NNc1nncc2ccccc12 [Hydralazine]
[2]
  ½ Life: 3 h

## NS(=O)(=O)c1cc2c(cc1Cl)NCNS2(=O)=O [Hydrocholorthiazide, reference compound]
In vivo
  ½ Life: 5.6 h
  half-life: 5.6 h

## COc1ccc2c3c1O[C@H]1C(=O)CC[C@H]4[C@@H](C2)N(C)CC[C@]314 [Hydrocodone]
In vivo
  ½ Life: 1.25 h

## NC(=O)NO [Hydroxyurea]
[2]
  ½ Life: 3 h

## NC(N)=NCCC[C@@H](N)C(=O)N[C@@H](CCCN=C(N)N)C(=O)N1CCC[C@H]1C(=O)N1C[C@H](O)C[C@H]1C(=O)NCC(=O)N[C@@H](Cc1cccs1)C(=O)N[C@@H](CO)C(=O)N1Cc2ccccc2C[C@@H]1C(=O)N1[C@H](C(=O)N[C@@H](CCCN=C(N)N)C(=O)O)C[C@@H]2CCCC[C@@H]21 [Icatibant]
In vivo
  ½ Life: 1.4 h

## CC#CCC(C)[C@H](O)/C=C/[C@@H]1[C@H]2C/C(=C/CCCC(=O)O)C[C@H]2C[C@H]1O (some centres unmarked) [Iloprost]
[2]
  ½ Life: 0.333 h

## CC(C)[N+]1(C)[C@@H]2CC[C@H]1CC(OC(=O)C(CO)c1ccccc1)C2.[Br-] (some centres unmarked) [Ipratropium bromide]
[2]
  ½ Life: 2 h

## NNC(=O)c1ccncc1 [Isoniazid]
[2]
  ½ Life: 0.5 h

## O=[N+]([O-])O[C@H]1CO[C@H]2[C@@H]1OC[C@H]2O[N+](=O)[O-] [Isosorbide Dinitrate]
[2]
  ½ Life: 1 h

## O=[N+]([O-])O[C@@H]1CO[C@H]2[C@@H]1OC[C@@H]2O [Isosorbide Mononitrate]
[2]
  ½ Life: 5 h

## CNC1(c2ccccc2Cl)CCCCC1=O (centres unmarked) [Ketamine]
In vivo
  ½ Life: 2.5 h

## CCC(=O)C1(c2cccc(O)c2)CCN(C)CC1 [Ketobemidone]
In vivo
  ½ Life: 2.42 h

## CC(=O)N1CCN(c2ccc(OCC3COC(Cn4ccnc4)(c4ccc(Cl)cc4Cl)O3)cc2)CC1 (centres unmarked) [Ketoconazole]
[2]
  ½ Life: 2 h

## O=C(c1ccccc1)c1ccc2n1CCC2C(=O)O (centres unmarked) [Ketorolac]
[2]
  ½ Life: 2.5 h

## N[C@@H](Cc1ccc(O)c(O)c1)C(=O)O [L-DOPA]
In vivo
  ½ Life: 0.833 h
